Reference: patent US20250381169A1, “METHODS FOR TREATING RENAL DISEASE” (Arizona Board of Regents on Behalf of the University of …, priority 2022, published 2025)
“Also recorded” adds a separate entry of the source.

What was measured:
[1] = tested on: kidney cortex of naïve mice; assay: Mitochondrial biogenesis in kidney cortex of naïve mice; assay type: in vivo
Description: Mice were treated with vehicle, 0.3 mg/kg or 1 mg/kg of MC16 with 2 doses IP (Oh, 24h) and harvested at 48 h.
Proteins were measured using immunoblot analysis or PCR to measure mRNA. […] FIG. 2G is a table of antioxidant and electron transport chain proteins and associated mRNAs.

[2] = tested on: mice subjected to renal I/R; assay: Mouse AKI model (renal ischemia reperfusion, I/R); assay type: in vivo
Description: Control and treated mice subjected to renal I/R were treated with MC16 (0.3 mg/kg) or vehicle 24 h after injury and then daily for 120 h (euthanized at 144 h). Using electron microscopy, mitochondria were counted. Vascular permeability was assessed with Evan's blue dye leakage and proteins were measured in renal cortices using immunoblot. Serum creatinine was also measured.

[3] = tested on: Db/db mice; assay: db/db mouse model of diabetic kidney disease; assay type: in vivo
Description: Db/db and nondiabetic (db/m) mice (10 wk old) were treated with MC16 or vehicle for 3 wk and euthanized.

[4] = tested on: aged mouse kidneys (renal cortex); assay: Global metabolomics of renal cortex in aged mice; assay type: in vivo
Description: Aged 22-month-old male C57B/6J mice were administered 1.0 mg/kg of MC16 or normal saline every other day over a 21-day interval (n=8-9/group). Seven-month-old C57B/6J male mice (controls) were administered normal saline every other day over a 21-day interval (n=7). Kidneys were harvested and snap frozen in liquid nitrogen. Renal cortex biopsies were analyzed by Metabolon for global metabolomic analyses. Briefly, samples were processed and divided into four fractions: two for analysis by RP/UPLC-MS/MS with (+) ion mode electrospray ionization (IMESI), one for RP/UPLC-MS/MS with (−) IMESI, and one for HILIC/UPLC-MS/MS with (−) IMESI. […] A p-value of p≤0.05 and a false discovery rate of q<0.10 were utilized to identify global metabolite alteration and correct for multiple comparisons, respectively.

[5] = tested on: renal proximal tubule cells (RPTCs); assay: Renal proximal tubule cells treated with high glucose; assay type: cell-based
Description: Here, the effects of MC16 on mitochondrial dysfunction and dynamics in renal proximal tubule cells (RPTCs) treated with high glucose and in a mouse model of type 2 diabetes was assessed.

[6] = I/R+MC16 group, decreased in I/R group
[7] = FIG. 16, compared to diabetic mice getting vehicle
[8] = db/db mice 10 wk old, treated for 3 wk
[9] = MC16-treated 'old' mice compared to saline-treated 'old' mice
[10] = MC16-treated 'old' mice vs saline-treated 'young' control mice
[11] = RPTCs exposed to 17 mM glucose, 96 h

SMILES: CCN1C(=O)C(Cc2cccc(OC)c2O)(OC(=O)N(C)C)c2cc(Cl)ccc21 (stereo not shown) [MC16, 5-chloro-1-ethyl-3-(2-hydroxy-3-methoxybenzyl)-2-oxoindolin-3-yl dimethylcarbamate]
- mitochondrial and antioxidant proteins ([1]; immunoblot or PCR, n=6): increases
- mitochondrial biogenesis pathway proteins and/or associated mRNA ([1]; immunoblot or PCR, n=6): induces
- Mitochondrial number in kidney cortex ([1]; naïve mice, 0.3 mg/kg or 1 mg/kg, 2 doses IP (0 h, 24 h), harvested at 48 h): increases
- recovery of renal function (serum creatinine) ([2]; FIG. 3, n=6): promotes recovery
- recovery of tubular injury (Kim1 expression) ([2]; FIG. 3, n=6): promotes recovery
- MFN2 ([2]; FIG. 5, during injury or MC16 treatment): did not change
- MFN1 (fusion) ([2]; FIG. 5, n=6): increases
- pDRP1 (fission) ([2]; FIG. 6, at 144 h): decreases
- DRP1 ([2]; FIG. 6, n=6): does not have an affect
- PGC-1α in the cytosolic fraction ([2]; FIG. 7, cytosolic fraction): not in the cytosolic fraction
- nuclear PGC-1α (biogenesis) ([2]; FIG. 7, nuclear fraction): increases
- serum creatinine decrease ([2]; I/R+MC16, 0.3 mg/kg from 24 h after injury, daily, at 144 h (I/R group alone 41%)): 72%
- Kim1 decrease ([2]; I/R+MC16 group, 0.3 mg/kg, 144 h): 50%
- PGC-1α ([2]; I/R+MC16 group, renal cortex immunoblot): increased
- Tight junction protein Claudin5 [2, 6]: recovered
- Tight junction protein ZO-1 [2, 6]: recovered
- Evan's blue dye leakage (vascular permeability) ([2]; I/R+MC16 group, increased 2.5-fold in I/R group): restored
- mitochondria biogenesis in renal cortices ([2]; mitochondria counted by electron microscopy, 0.3 mg/kg): 1.4 fold
- PGC1α ([3]; FIG. 9, n=6): restores
- MFN2 (fusion) ([3]; FIG. 10, n=6): increased
- mitochondrial fission proteins ([3]; FIG. 11, n=6): no effect
- mitophagy proteins ([3]; FIG. 12, n=6): increases
- glomerular function over time ([3]; FIG. 13, mice have yet to show signs of DKD in the timeframe): does not change
- vascular tight junction proteins ([3]; FIG. 15, n=6): improves
- blood glucose [3, 7]: does not increase/decrease
- urine output [3, 7]: does not increase/decrease
- kidney weight ([3]; FIG. 17, relative to control mice): normalized
- KIM1 ([3]; FIG. 18): normalizes
- NGAL ([3]; FIG. 18): No effects
- serum creatinine ([3]; FIG. 18): normalizes
- ATP [3, 8]: prevented; also recorded: restores
- phospho-Drp1 [3, 8]: restored
- renal cortical ETC protein levels (complexes I, III, and V) [3, 8]: prevented; also recorded: restores
- reduction in DHAP [4, 9]: 20%
- reduction in fructose-6-phosphate [4, 9]: 24%
- reduction in glucose-6-phosphate [4, 9]: 32%
- long chain polyunsaturated fatty acids (n3 and n6) ([4]; MC16-treated 'old' mice vs saline-treated 'old' and 'young' mice controls): increase
- glycolysis metabolites [4, 10]: no statistical changes
- metabolic lipid alterations (diacylglycerols, monoacylglycerols, acyl glycines, PC, PE, plasmalogens, secondary bile acids) [4, 10]: not observed
- origin of carnitine species ([4]; MC16-treated 'old' mice, saline-treated 'old' mice: leucine, isoleucine, valine metabolism): fatty acid metabolism
- carnitine levels ([4]; both 'old' groups (saline and MC16)): elevated
- ATP [5, 11]: restored
- ETC proteins [5, 11]: restored
- oxygen consumption rate [5, 11]: restored
- Mfn1 ([5]; RPTCs exposed to high glucose): restored
- phospho-Drp1 ([5]; RPTCs exposed to high glucose): restored
